Results as given in US8093252B2, “Crystalline polymorphic form of glucokinase activator” (AstraZeneca AB, priority 2009, dated 2012).

Columns and labels:
[1] = dihydrate from slurry of the compound in water, disclosed in WO 2007/007041; cited from earlier work
[2] = relative stability of the crystalline forms of the compound; type: physicochemical; conditions: crystalline form prepared from isopropyl alcohol (IPA)

COC[C@H](C)Oc1cc(Oc2cnc(C(=O)N3CCC3)cn2)cc(C(=O)Nc2cnc(C)cn2)c1 [Form 3, 3-{[5-(azetidin-1-ylcarbonyl)pyrazin-2-yl]oxy}-5-{[(1S)-1-methyl-2-(methyloxy)ethyl]oxy}-N-(5-methylpyrazin-2-yl)benzamide]
stability of crystalline form in the presence of water [1]: most stable

COC[C@H](C)Oc1cc(Oc2cnc(C(=O)N3CCC3)cn2)cc(C(=O)Nc2cnc(C)cn2)c1 [Form 6, 3-{[5-(azetidin-1-ylcarbonyl)pyrazin-2-yl]oxy}-5-{[(1S)-1-methyl-2-(methyloxy)ethyl]oxy}-N-(5-methylpyrazin-2-yl)benzamide]
stability of crystalline form relative to the other forms [2]: more stable
